Data on 13 compounds can be found in patent EP2809669B1, “FUSED PYRROLEDICARBOXAMIDES AND THEIR USE AS PHARMACEUTICALS” (SANOFI, priority 2012, dated 2013).

Read-outs that look alike come from different tables or passages of the source.

Data set [1] has as its system upper airway. The data set is described as follows: Effect on upper airway collapsibility in the anesthetized pig (negative pressure challenge). The format is in vivo. Particulars: negative pressure -150 mbar. An excerpt: Effect on upper airway collapsibility in the pig Pharmacological efficacy against obstructive apneas was investigated in chloralose-urethane anesthetized pigs (weight range 20 to 35 kg), a large-animal model for obstructive apneas. Negative pressure generated by a negative pressure device was applied with a cannula to the upper part of the trachea for at least three breaths so that the upper airway was exposed to the negative pressure generated by the device. This caused an upper airway collapse as in an obstructive apnea in control animals treated with vehicle only, and in animals of the treatment group before the test compound was administered (baseline situation). Different levels of negative pressure were used to cause a collapse of the upper airway (-50 mbar, -100 mbar and -150 mbar). These negative pressure challenges were repeated several times before vehicle or test compound was given, and at regular intervals after administration of vehicle or test compound. Whether the upper airway was collapsed or open, was judged by airflow measurement and by the tracheal pressure in the cannula inserted into the upper trachea. In case the upper airway was collapsed by the negative pressure, airflow to the negative pressure device was close to zero. As a second parameter tracheal pressure approached the negative pressure generated by the device during upper airway collapse. Test compounds were administered by intravenous bolus injection. After administration of an effective test compound the upper airway was open during the negative pressure challenges, i.e. not collapsed, as indicated by airflow to the negative pressure device and the fact that tracheal pressure now approached atmospheric pressure in the inspiratory phase where upper airway muscles are activated. In vehicle-treated controls upper airway collapse occurred at every negative pressure challenge at -50 mbar, -100 mbar and -150 mbar. In Table 17, the time after administration of compounds of the formula I from the examples above is shown during which no upper airway collapse occurred (time of inhibition of collapsibility) at a negative pressure of -150 mbar. […]

Data set [2] deals with T1, hERG channel (Homo sapiens, UniProt Q12809).
T1 construct: expressed in transfected cells
T1 sequence (Q12809 whole entry): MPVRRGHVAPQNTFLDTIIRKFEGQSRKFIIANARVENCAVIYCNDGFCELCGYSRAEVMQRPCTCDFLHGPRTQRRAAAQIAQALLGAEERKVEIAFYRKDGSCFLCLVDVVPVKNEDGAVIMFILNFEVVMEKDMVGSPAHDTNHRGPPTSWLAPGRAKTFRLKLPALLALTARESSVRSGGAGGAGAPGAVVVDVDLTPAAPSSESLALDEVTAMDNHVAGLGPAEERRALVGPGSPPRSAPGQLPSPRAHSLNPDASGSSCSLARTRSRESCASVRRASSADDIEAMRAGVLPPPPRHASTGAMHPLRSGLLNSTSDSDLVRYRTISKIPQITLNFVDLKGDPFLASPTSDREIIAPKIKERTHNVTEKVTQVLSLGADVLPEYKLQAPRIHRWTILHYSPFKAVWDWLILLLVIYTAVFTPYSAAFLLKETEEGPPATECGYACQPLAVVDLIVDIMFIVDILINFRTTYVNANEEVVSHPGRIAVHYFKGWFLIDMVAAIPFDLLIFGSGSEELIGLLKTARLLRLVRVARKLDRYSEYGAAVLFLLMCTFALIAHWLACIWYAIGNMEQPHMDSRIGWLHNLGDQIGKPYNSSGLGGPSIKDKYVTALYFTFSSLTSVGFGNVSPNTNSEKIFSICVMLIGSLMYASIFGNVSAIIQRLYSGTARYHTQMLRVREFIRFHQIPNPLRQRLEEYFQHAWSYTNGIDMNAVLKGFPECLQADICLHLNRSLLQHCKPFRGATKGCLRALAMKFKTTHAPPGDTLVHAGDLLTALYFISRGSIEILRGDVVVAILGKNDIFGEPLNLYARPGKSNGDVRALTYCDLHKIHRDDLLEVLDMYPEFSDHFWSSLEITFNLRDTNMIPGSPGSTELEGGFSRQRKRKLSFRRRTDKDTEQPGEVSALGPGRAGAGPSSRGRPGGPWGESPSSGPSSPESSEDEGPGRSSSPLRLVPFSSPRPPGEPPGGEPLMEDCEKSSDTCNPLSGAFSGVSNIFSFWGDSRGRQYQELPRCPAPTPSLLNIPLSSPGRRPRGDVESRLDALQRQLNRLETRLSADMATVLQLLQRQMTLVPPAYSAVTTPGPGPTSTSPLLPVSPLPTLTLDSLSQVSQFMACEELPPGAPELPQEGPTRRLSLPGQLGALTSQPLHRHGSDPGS
The data set is described as follows: Determination of the effect on the hERG channel in CHO cells (whole-cell patch clamp). To be noted: CHO cells stably expressing hERG, room temperature, read-out: IC50 value [µM] for hERG inhibition. The class given is cell-based. On the procedure:
Determination of the effect on the hERG channel in CHO cells
An inhibition of the hERG (human Ether-a-go-go-Related Gene) potassium channel is unwanted because it can lead to dangerous arrhythmias. The effect of compounds of the formula I on the cloned human cardiac hERG channel was evaluated in an in vitro model using a whole-cell patch-clamping technique. CHO (Chinese hamster ovary) cells stably expressing hERG, the potassium channel underlying IKr currents in human hearts, were grown in HAM's F-12 media supplemented with 10 % fetal bovine serum, 1 x penicillin/streptomycin and 500 µg/ml G418 (Invitrogen, Carlsbad, CA, USA) in an atmosphere of 95 % air and 5 % carbon dioxide. Cells used for patch-clamping were seeded on glass or plastic coverslips 12 to 36 hours before use. hERG channel currents were recorded at room temperature using the whole-cell configuration of the patch clamp technique with an Axopatch 200B amplifier (Axon Instruments, Foster City, CA, USA). Briefly, electrodes (3 to 6 MΩ resistance) were fashioned from TW150F glass capillary tubes (World Precision Instruments, Sarasota, FL, USA) and filled with pipette solution (containing 120 mM potassium aspartate, 20 mM potassium chloride, 4 mM adenosine triphosphate disodium salt, 5 mM HEPES, 1 mM magnesium chloride; pH adjusted to 7.2 with potassium hydroxide). hERG currents were initiated by a positive voltage pulse (20 mV) followed by a negative pulse (-40 mV) and were recorded for off-line analyses. Once hERG current from a cell perfused with external solution (containing 130 mM sodium chloride, 5 mM potassium chloride, 2.8 mM sodium acetate, 1 mM magnesium chloride, 10 mM HEPES, 10 mM glucose, 1 mM calcium chloride; pH adjusted to 7.4 with sodium hydroxide) without the test compound, i.e. control solution, was stabilized, the cell was perfused with external solution containing the test compound at specific concentrations. For each concentration from each cell, peak amplitude of the steady-state hERG tail current at -40 mV was measured in picoAmpere (pA). The peak amplitude in pA for each concentration (up to a maximum concentration of 10 µM) was compared with that for the control solution from the same cell and expressed as percent value of the control. From the percent values at multiple concentrations, IC50 values for inhibition of hERG can be determined.

Data set [3] has as its system atrium of the anesthetized pig. The data set is described as follows: Investigation of the refractory period and the left-atrial vulnerability in the anesthetized pig. The format is in vivo. To be noted: Sus scrofa, iv; for inhibition in vivo at 0.3 mg/kg / change in vivo at 0.3 mg/kg: 0.3 mg/kg i.v. The protocol:
Investigation of the refractory period and the left-atrial vulnerability in the pig
The compounds were tested for prolongation of the refractory period and antiarrhythmic activity on the atrium of the anesthetized pig as described in Knobloch K. et al., Naunyn-Schmiedeberg's Arch. Pharmacol. 2002, 366, 482-487. Here the anti-arrhythmic action relates to the inhibition of the occurrence of episodes of atrial arrhythmias which are induced by a prematurely placed extra-stimulus (S2) in the left atrium (= left-atrial vulnerability). The prolongation of the refractory period (refractoriness) is expressed as the increase in percent of the value of the refractory period 15 min after the end of administration of the test compound vs. the basal value before administration. Mean values of the prolongation of the refractory period are shown from three rates (150/min, 200/min and 250/min). The values for the inhibition of left atrial vulnerability (inhibition of episodes of arrhythmias) in percent refer to three measurements (three time points) before administration of the test compound vs. at least three measurements during the first hour after administration.
In Table 16, the action of compounds of the formula I from the examples above on the refractory period of the left atrium and their antiarrhythmic activity in the anesthetized pig after intravenous (i.v.) administration of the described dose is shown.

[4] abbreviates: 100 µg/kg intravenous bolus injection.
[5] abbreviates: infusion over 1 h, first hour after administration vs. before.
Where [6] appears, read: 0.25 h, infusion over 1 h, 15 min after end of administration vs. basal value, mean of three rates (150/min, 200/min, 250/min), read-out: % Prolongation of left atrial refractory period.
The mark [7] stands for this setting: 0.25 h, bolus injection, 15 min after end of administration vs. basal value, mean of three rates (150/min, 200/min, 250/min), read-out: % Prolongation of left atrial refractory period.
[8] abbreviates: 1 h, bolus injection, first hour after administration vs. before.

Broadly, the IC50 is the concentration that inhibits the measured activity by half. Regarding `CC[C@@H](NC(=O)c1cc(C(=O)N[C@H](CC)c2ccccc2)n2c1COCC2)c1ccccc1` [16i, 3,4-Dihydro-1H-pyrrolo[2,1-c][1,4]oxazine-6,8-dicarboxylic acid bis-[((R)-1-phenylpropyl)-amide]], the “Time of inhibition of collapsibility (at -150 mbar)” value (“Time of inhibition … (at -150 mbar)” for short) in data set [1] (10 µg/kg intravenous bolus injection) is “for 90 min”. For the same compound, the half-maximal inhibitory concentration (IC50) in data set [2] was over 10 µM.
`CC[C@@H](NC(=O)c1cc(C(=O)N[C@H](CC)c2ccc(OC)nc2)n2c1COCC2)c1ccccc1` [16j, 3,4-Dihydro-1H-pyrrolo[2,1-c][1,4]oxazine-6,8-dicarboxylic acid 6-{[(R)-1-(6-methoxy-pyridin-3-yl)-propyl]-amide}8-[((R)-1-phenyl-propyl)-amide]]: the “Time of inhibition … (at -150 mbar)” value in data set [1] (setting [4]) is on record as “for 120 min”. For the same compound, the IC50 in data set [2] was over 10 µM.
As a reminder, the inhibition in vivo is the change of the read-out against control, counted positive when it falls. Low readings indicate a response near the control, high ones a response far below the control. In the case of `CC[C@@H](NC(=O)c1cc(C(=O)N2CCC[C@@H]2C)n2c1COCC2)c1ccc(C(F)(F)F)nc1` [16e, 6-((S)-2-methyl-pyrrolidine-1-carbonyl)-3,4-dihydro-1H-pyrrolo[2,1-c][1,4]oxazine-8-carboxylic acid [(R)-1-(6-trifluoromethyl-pyridin-3-yl)-propyl]-amide], in data set [2], the concentration for half-maximal inhibition (IC50) was over 10 µM. Further, at 0.3 mg/kg the inhibition in vivo in data set [3] (setting [5]) was 84%. Further, in data set [3] (setting [6]), the change in vivo at 0.3 mg/kg was 38%.
For the compound `CC[C@@H](NC(=O)c1cc(C(=O)N2CCC[C@@H]2C)n2c1COCC2)c1ccccc1` [16a, 6-((S)-2-Methyl-pyrrolidine-1-carbonyl)-3,4-dihydro-1H-pyrrolo[2,1-c][1,4]oxazine-8-carboxylic acid ((R)-1-phenyl-propyl)-amide], the concentration for half-maximal inhibition (IC50) in data set [2] was over 10 µM. Also, testing at 0.3 mg/kg in data set [3] (setting [5]) gave an inhibition in vivo of 91%. For the same compound, in data set [3] (setting [6]), the change in vivo at 0.3 mg/kg was 40%.
Consider `CC[C@@H](NC(=O)c1cc(C(=O)N[C@H](C)c2ccc(F)cc2)n2c1COCC2)c1ccc(C(F)(F)F)cc1` [16eb, 3,4-Dihydro-1H-pyrrolo[2,1-c][1,4]oxazine-6,8-dicarboxylic acid 6-{[(R)-1-(4-fluoro-phenyl)-ethyl]-amide} 8-{[(R)-1-(4-trifluoromethyl-phenyl)-propyl]-amide}], for which the IC50 in data set [2] is over 1 µM.
Consider `CC[C@@H](NC(=O)c1cc(C(=O)N2CCC[C@@H]2C)n2c1COCC2)c1cnc(OC)c(Cl)c1` [16b, 6-((S)-2-Methyl-pyrrolidine-1-carbonyl)-3,4-dihydro-1H-pyrrolo[2,1-c][1,4]oxazine-8-carboxylic acid [(R)-1-(5-chloro-6-methoxy-pyridin-3-yl)-propyl]-amide], for which the half-inhibitory concentration (IC50) in data set [2] is over 10 µM. Further, the change in vivo at 0.3 mg/kg in data set [3] (setting [7]) worked out at 21%. For the same compound, 0.3 mg/kg produced 91% inhibition in vivo in data set [3] (setting [8]).
Regarding `CC[C@@H](NC(=O)c1cc(C(=O)N[C@H](C)c2ccc(F)cc2)n2c1COCC2)c1ccc(C(F)(F)F)nc1` [16g, 3,4-Dihydro-1H-pyrrolo[2,1-c][1,4]oxazine-6,8-dicarboxylic acid 6-{[(R)-1-(4-fluorophenyl)-ethyl]-amide}8-{[(R)-1-(6-trifluoromethyl-pyridin-3-yl)-propyl]-amide}], the IC50 in data set [2] was over 10 µM.
Take `CC[C@@H](NC(=O)c1cc(C(=O)N2CCC[C@@H]2C(F)(F)F)n2c1COCC2)c1ccc(C(F)(F)F)nc1` [16o, 6-((R)-2-Trifluoromethyl-pyrrolidine-1-carbonyl)-3,4-dihydro-1H-pyrrolo[2,1-c][1,4]oxazine-8-carboxylic acid [(R)-1-(6-trifluoromethyl-pyridin-3-yl)-propyl]-amide]: the change in vivo at 0.3 mg/kg in data set [3] (setting [7]) was 45%. Moreover, the inhibition in vivo at 0.3 mg/kg in data set [3] (setting [8]) was 71%.
In the case of `CC[C@@H](NC(=O)c1cc(C(=O)N2CCC[C@@H]2C(=O)OC(C)C)n2c1COCC2)c1ccccc1` [16n, (R)-1-[8-((R)-1-Phenyl-propylcarbamoyl)-3,4-dihydro-1H-pyrrolo[2,1-c][1,4]oxazine-6-carbonyl]-pyrrolidine-2-carboxylic acid isopropyl ester], the “Time of inhibition … (at -150 mbar)” value in data set [1] (setting [4]) is reported as “for 120 min”. In data set [2], the half-maximal inhibitory concentration (IC50) was over 10 µM.
With `CC[C@@H](NC(=O)c1cc(C(=O)N2CCC[C@@H]2C)n2c1COCC2)c1ccc(C#N)c(Cl)c1` [16d, 6-((S)-2-Methyl-pyrrolidine-1-carbonyl)-3,4-dihydro-1H-pyrrolo[2,1-c][1,4]oxazine-8-carboxylic acid [(R)-1-(3-chloro-4-cyano-phenyl)-propyl]-amide], the IC50 in data set [2] is over 10 µM. Moreover, the change in vivo at 0.3 mg/kg in data set [3] (setting [7]) was found to be 24%. In data set [3] (setting [8]), this compound showed an inhibition in vivo at 0.3 mg/kg of 100%.
For `CC[C@@H](NC(=O)c1cc(C(=O)N2CCC[C@@H]2C)n2c1COCC2)c1ccc(C(F)(F)F)c(Cl)c1` [16c, 6-((S)-2-Methyl-pyrrolidine-1-carbonyl)-3,4-dihydro-1H-pyrrolo[2,1-c][1,4]oxazine-8-carboxylic acid [(R)-1-(3-chloro-4-trifluoromethyl-phenyl)-propyl]-amide], the concentration for half-maximal inhibition (IC50) in data set [2] was over 10 µM. For the same compound, the change in vivo at 0.03 mg/kg in data set [3] (0.25 h, 0.03 mg/kg i.v., bolus injection, 15 min after end of administration vs. basal value, mean of three rates (150/min, 200/min, 250/min), read-out: % Prolongation of left atrial refractory period) came to 12%. The compound also gave an inhibition in vivo at 0.03 mg/kg in data set [3] (1 h, 0.03 mg/kg i.v., bolus injection, first hour after administration vs. before) of 65%.
Turning to `CC[C@@H](NC(=O)c1cc(C(=O)N2CCC[C@@H]2C)n2c1COCC2)c1ccc(C(F)(F)F)cc1` [16f, 6-((S)-2-Methyl-pyrrolidine-1-carbonyl)-3,4-dihydro-1H-pyrrolo[2,1-c][1,4]oxazine-8-carboxylic acid [(R)-1-(4-trifluoromethyl-phenyl)-propyl]-amide], in data set [3] (0.25 h, 1.0 mg/kg i.v., bolus injection, 15 min after end of administration vs. basal value, mean of three rates (150/min, 200/min, 250/min), read-out: % Prolongation of left atrial refractory period), the change in vivo at 1 mg/kg came out at 19%. In addition, the inhibition in vivo at 1 mg/kg in data set [3] (1 h, 1.0 mg/kg i.v., bolus injection, first hour after administration vs. before) stood at 73%.
Turning to `CC[C@@H](NC(=O)c1cc(C(=O)N2CCC[C@@H]2C)n2c1COCC2)c1ccc(Cl)c(Cl)c1` [16ci, 6-((S)-2-Methyl-pyrrolidine-1-carbonyl)-3,4-dihydro-1H-pyrrolo[2,1-c][1,4]oxazine-8-carboxylic acid [(R)-1-(3,4-dichloro-phenyl)-propyl]-amide], in data set [2], the 50% inhibitory concentration (IC50) was about 10 µM.
